Data set [1] has as its system mir-143 binding sites. The data set is described as follows: pGL3-mir-143 sensor luciferase assay in HeLa cells. The class given is cell-based, human. To be noted: HeLa cells, pGL3-mir-143 sensor with pCR3-pri-mir-143 (430). The text has this:
In one embodiment, an expression system based on the pGL3-Control (Promega Corp., Madison Wis.) vector containing a CMV promoter controlling expression of a luciferase reporter sequence was used in transient transfections of HeLa cells with plasmids expressing miRNA or pri-miRNA mimics. To assess the ability of miRNA mimics to bind and regulate the expression of the luciferase reporter gene, two reporter plasmids were constructed: 1) a synthetic DNA fragment comprising two sites perfectly complementary to mir-143 were inserted into the pGL3-Control luciferase reporter vector, to create the pGL3-mir-143 sensor plasmid, and 2) a DNA fragment comprising the 3′-UTR of the LIM domain only 4 (LMO4) gene (predicted to be regulated by mir-143) was inserted into pGL3-Control to create pGL3-LMO4; this fragment was PCR-amplified using a primer beginning at position 1261 of the LMO4 sequence (GenBank Accession NM_006769.2, incorporated herein as SEQ ID: 809) and the downstream primer hybridizing to the poly-A tail. In each of these plasmids, the target site was placed downstream of the luciferase coding sequence and upstream of the polyadenylation signal in the 3′-UTR of the luciferase reporter vector. The unmodified pGL3-Control luciferase reporter vector was used as a control.
HeLa cells were routinely cultured and passaged as described, and on the day before transfection with expression or reporter plasmids, the HeLa cells were seeded onto 24-well plates 50,000 cells/well. Cells were transfected according to standard published procedures with various combinations of plasmids using 2 μg Lipofectamine™ 2000 Reagent (Invitrogen) per μg of plasmid DNA, or, when transfecting oligomeric compounds, 1.25 μg of Lipofectamine™ 2000 Reagent per 100 nM oligonucleotide or double-stranded RNA. The luciferase signal in each well was normalized to the Renilla luciferase (RL) activity produced from a co-transfected plasmid, pRL-CMV, which was transfected at 0.5 μg per well. Cells were treated at various dosages (4 nM, 20 nM, and 100 nM) with the following oligomeric compound mimics: 1) “ds-mir-143,” 2) “ds-Control,” 3) “pCR3-pri-mir-143,” or 4) “pri-mir-control,” as described supra. In accordance with methods described in Example 12, supra, a luciferase assay was performed 48-hours after transfection. Briefly, cells were lysed in passive lysis buffer (PLB; Promega), and 20 ul of the lysate was then assayed for RL activity using a Dual Luciferase Assay kit (Promega) according to the manufacturer's protocol. The results below are an average of three trials and are presented as percent pGL3-Control luciferase expression normalized to pRL-CMV expression (RL).
In another embodiment, HeLa cells were transfected with 0.03 μg pGL3-mir-143 sensor plasmid and 0.01 μg pRL-CMV plasmid, and, in addition, (except those samples described below as “without mir-143 pri-miRNA,”) were also transfected with 0.01 μg of an expression plasmid designed to express a mir-143 pri-miRNA mimic comprising a larger 430-nt fragment of the mir-143 primary miRNA transcript, referred to as “pCR3-pri-mir-143 (430)” ([…]; SEQ ID NO: 871). […] To further evaluate the ability of the mir-143 pri-miRNA mimic to inhibit luciferase activity from the sensor plasmid, and to assess the ability of oligomeric compounds to interfere with the inhibition of pGL3-mir-143 sensor luciferase expression by the mir-143 pri-miRNA mimic, pGL3-mir-143 sensor-expressing HeLa cells treated with pCR3-pri-mir-143 (430) were additionally treated with varying concentrations (0-, 6.7- or 20 nM) of the following oligomeric compounds: 1) ISIS Number 327901 (SEQ ID NO: 319), a uniform 2′-MOE oligomeric compound targeting mir-143; 2) ISIS Number 342673 (SEQ ID NO: 758), a uniform 2′-MOE scrambled control; or 3) ISIS Number 327924 (SEQ ID NO: 342) targeting an unrelated miRNA (mir-129-2). […]

The subject of data set [2] is mir-143 pri-miRNA. The data set is described as follows: mir-143 pri-miRNA levels in differentiating adipocytes (real-time RT-PCR). The class given is cell-based, human. To be noted: differentiated adipocytes 9 days vs 3 days post-differentiation. The method, then:
Here, oligomeric compounds targeting mir-143 were transfected into preadipocytes which were then induced to differentiate, in order to assess the effects of these compounds on mir-143 pri-miRNA levels during differentiation. mir-143 pri-miRNA levels were assessed on days 3 and 9 after differentiation.
In addition to the uniform 2′-MOE phosphorothioate oligomeric compound ISIS Number 327901 (SEQ ID NO: 319) targeting mature mir-143, a 5-10-7 gapmer oligomeric compound, ISIS Number 340927 (SEQ ID NO: 319), was designed to target mature mir-143. […] ISIS 342672 and ISIS 342673 are uniform 2′-MOE phosphorothioate oligomeric compounds 22 nucleotides in length. ISIS Number 342677 (SEQ ID NO: 789) and ISIS Number 342678 (SEQ ID NO: 758) are the corresponding 5-10-7 scrambled 2′-MOE gapmer oligomeric compounds. All cytidine residues are 5-methylcytidines. […]
These compounds were transfected into differentiating adipocytes and their effects on levels of the mir-143 pri-miRNA molecule were assessed in pre-adipocytes vs. differentiated adipocytes, by real-time RT-PCR using the primer/probe set specific for the mir-143 pri-miRNA (forward primer=ISIS 339314, SEQ ID NO: 786; reverse primer=ISIS 342897, SEQ ID NO.: 787; probe=ISIS 342898, SEQ ID NO.: 788). […]
(In qPCR the cycle at which signal appears reflects the starting amount.)

In the oligonucleotide strings, read from the 5' end, every base follows the letter of its sugar. An asterisk marks phosphorothioate; unmarked linkages are phosphodiester. Other units and linkages are bracketed, terminal groups are in braces. A string of capitals states the bases alone. e = 2'-O-(2-methoxyethyl) (MOE); [5mC] = 5-methylcytosine

We go through three substances from patent US8178506B2, “Oligomeric compounds and compositions for use in modulation of small non-coding RNAs” (Regulus Therapeutics Inc., priority 2003, dated 2012).

Regarding “342673 (antisense eA*eG*eA*e[5mC]*eT*eA*eG*e[5mC]*eG*eG*eT*eA*eT*e[5mC]*eT*eT*eT*eA*eT*e[5mC]*e[5mC]*e[5mC]) [compound 342673]”, the Relative luciferase activity is 1.3 in data set [1] (6.7 nM) and 1.5 in data set [1] (20 nM).
In the case of “TGAGCTACAGTGCTTCATCTCA [ISIS 327901] (chemistry not given here) [uniform 2′-MOE PS; targets mir-143]”, the “levels of the mir-143 pri-miRNA” value in data set [2] is listed as “approximately 4 fold”.
In the case of “327901 (antisense eT*eG*eA*eG*e[5mC]*eT*eA*e[5mC]*eA*eG*eT*eG*e[5mC]*eT*eT*e[5mC]*eA*eT*e[5mC]*eT*e[5mC]*eA) [compound 327901]”, the Relative luciferase activity was 4.0 in data set [1] (6.7 nM) and 6.4 in data set [1] (20 nM).
